According to US20120142947A1, “Stabilized 3-Hydroxyflavan Compositions and Methods Therefor” (priority 2005, published 2012):

Assay: Prevention of discoloration of EGCG solutions (absorbance at 492 nm)
Assay type: physicochemical
Conditions: for protection of EGCG from discoloration by reducing agent: further experiments at the observed pH ranges (data not shown)
Procedure: Discoloration was measured using a spectrophotometer at a fixed wavelength of 492 nm. More specifically, solutions of EGCG (2 mM) and NAC (4 mM) were prepared in McIlvaine buffer at various pH levels in 1.0 increments between pH 3.0 to pH 7.0. A control experiment was set up without NAC but otherwise identical conditions. The so prepared solutions were incubated at 55° C. and the discoloration was measured at 492 nm over the next 15 days.

Question: For `N[C@@H](CS)C(=O)O` [cysteine], which “protection of EGCG from discoloration by reducing agent” value (“protection of EGCG … by reducing agent” below) is on record?
Answer: failed to provide significant protection from discoloration

Question: For `CC(=O)N[C@@H](CS)C(=O)O` [NAC, N-acetyl cysteine], which “discoloration measured at 492 nm” value (EGCG (2 mM) and NAC (4 mM) in McIlvaine buffer, pH levels of less than 6.0, 55° C., over 15 days, versus control without NAC) is on record?
Answer: substantially reduced

Question: And the “protection of EGCG … by reducing agent” value?
Answer: prevented discoloration

Question: With `N[C@@H](CCC(=O)N[C@@H](CS)C(=O)NCC(=O)O)C(=O)O` [glutathione] as the molecule, how does the “protection of EGCG … by reducing agent” value read?
Answer: prevented discoloration
